According to PubChem BioAssay AID1963847 (Molecular Pharmacology Branch, DTP, NCI, 2024):
“And” between values parts separate entries of the source, which are not always exact repeats. Equal values may be shown once.

Tested on: 415267-285-R-J2-PDC complex spheroid viability
Assay: Anticancer human tumor 415267-285-R-J2-PDC patient-derived breast carcinoma cell line growth inhibition [POLQ]
Conditions: for viability, T/C: stronger effect = lower value
Method: Multicellular complex tumor spheroid response to Polymerase (POL) inhibitors (novobiocin, ART-558, RP6685) in combination with a variety of drugs and investigational agents in selected tumor cell lines
The POL inhibitors (novobiocin, ART-558, and RP6685) were evaluated both individually and in combination with standard of care and investigational anticancer small molecules within a complex spheroid model of solid tumors. . Complex spheroids include a stromal component modeled by human endothelial cells (HUVEC) and fibroblasts modeled by human mesenchymal stem cells (MSCs). The concentration ranges selected for each drug and investigational agent were based upon clinically achievable concentrations if the clinical Cmax of the agent was known.
Compounds. The drugs and investigational agents: novobiocin (NSC847541), ART-558 (NSC835418), RP-6685 (NSC848927), peposertib (NSC802822), ceralasertib (NSC780249), elimusertib (NSC800525), camonsertib (NSC841442), AZD-1390 (NSC803789), olaparib (NSC753686), talazoparib (NSC767125), rucaparib (NSC756644), sotorasib (NSC818433), MRTX-1133 (NSC836407), SN-38 (NSC673596), topotecan (NSC609699), epotoside (NSC141540), doxorubicin (NSC123127), gemcitabine (NSC613327), 5-fluorouracil (NSC19893), paclitaxel (NSC125973), vemurafenib (NSC761431), MSA-2 (NSC828583), SN-011 (NSC837082), adavosertib (NSC754352), prexasertib (NSC758257), carboplatin (NSC241240) and oxaliplatin (NSC266046), were obtained from the National Cancer Institute (NCI) Developmental Therapeutics Program Chemical Repository (21). The FDA-approved anticancer drug set is available from the Developmental Therapeutics Program at https://dtp.cancer.gov/organization/dscb/obtaining/. […] The stock solutions were prepared in dimethyl sulfoxide (DMSO, Sigma-Aldrich, St. Louis, MO, cat. D2650), except for the platinum compounds which were prepared in saline (Quality Biological, Gaithersburg, MD, cat. 114-055-101), at 800-fold the tested concentration and stored at -70 degrees C prior to their use. All drugs and investigational agents were tested over a range starting from a high concentration at or near the clinical Cmax and decreasing in half-log increments. If the clinical Cmax for an agent had not been determined, the highest concentration tested was 10 microM, except for SN-38, which was tested at a high concentration of 1 microM.
Cell Culture. All cells were maintained in an incubator at 37 degrees C and 5% CO2 with 95% humidity. The PDC lines were cultured according to standard operating procedures established by the NCI PDMR (https://pdmr.cancer.gov). Table 3 of the manuscript, lists the cell lines along with the number of the three cell types plated to form the mct-spheroids and media for tumor cell growth. After thawing, all PDC lines, except 997537-175-T-J1-PDC and 415267-285-R-J2-PDC, were cultured in Matrigel-coated flasks prepared with a working solution of 1X Ham's F-12 nutrient mix, without supplementation (Thermo Fisher Scientific, cat. 11765054), 100 U/mL penicillin-streptomycin (Thermo Fisher Scientific, cat. 15140122), and 2.5% Matrigel (Corning Inc., Corning, NY, cat. 354248) for the first three passages. The two PDC lines 997537-175-T-J1-PDC and 415267-285-R-J2-PDC were cultured on uncoated flasks. The 857933-349-R-J2-PDC line was cultured in 6C/Colon 1B media containing advanced DMEM/F-12 (Thermo Fisher Scientific, cat. 12634028), 10 mM HEPES (Thermo Fisher Scientific, cat. 15630080), 1X GlutaMAX supplement (Thermo Fisher Scientific, cat. 35050061), 0.1 mg/mL primocin (InvivoGen, San Diego, CA, cat. ant-pm-2), 10% defined fetal bovine serum, heat inactivated (HyClone Laboratories Inc., Logan, UT, cat. SH30070.03HI), 50% L-WRN conditioned media (ATCC, cat. CRL-3276), 1.25 mM N-Acetyl-L-cysteine (Sigma-Aldrich, cat. A9165), 10 mM nicotinamide (Sigma-Aldrich, cat. N0636), 1X B-27 supplement (Thermo Fisher Scientific, cat. 17504044), 1X N-2 supplement (Thermo Fisher Scientific, cat. […]

[1] = curve of first compound, second compound 0.0316 µM
[2] = curve of first compound, second compound 0.1 µM
[3] = curve of first compound, second compound 0.316 µM
[4] = curve of first compound, second compound 1 µM
[5] = curve of first compound, second compound 3.16 µM
[6] = curve of first compound, second compound 10 µM
[7] = second compound 0.0316 µM, first compound 0.0316 µM
[8] = second compound 0.0316 µM, first compound 0.1 µM
[9] = second compound 0.0316 µM, first compound 0.316 µM
[10] = second compound 0.0316 µM, first compound 1 µM
[11] = second compound 0.0316 µM, first compound 3.16 µM
[12] = second compound 0.0316 µM, first compound 10 µM
[13] = second compound 0.1 µM, first compound 0.0316 µM
[14] = second compound 0.1 µM, first compound 0.1 µM
[15] = second compound 0.1 µM, first compound 0.316 µM
[16] = second compound 0.1 µM, first compound 1 µM
[17] = second compound 0.1 µM, first compound 3.16 µM
[18] = second compound 0.1 µM, first compound 10 µM
[19] = second compound 0.316 µM, first compound 0.0316 µM
[20] = second compound 0.316 µM, first compound 0.1 µM
[21] = second compound 0.316 µM, first compound 0.316 µM
[22] = second compound 0.316 µM, first compound 1 µM
[23] = second compound 0.316 µM, first compound 3.16 µM
[24] = second compound 0.316 µM, first compound 10 µM
[25] = second compound 1 µM, first compound 0.0316 µM
[26] = second compound 1 µM, first compound 0.1 µM
[27] = second compound 1 µM, first compound 0.316 µM
[28] = second compound 1 µM, first compound 1 µM
[29] = second compound 1 µM, first compound 3.16 µM
[30] = second compound 1 µM, first compound 10 µM
[31] = second compound 3.16 µM, first compound 0.0316 µM
[32] = second compound 3.16 µM, first compound 0.1 µM
[33] = second compound 3.16 µM, first compound 0.316 µM
[34] = second compound 3.16 µM, first compound 1 µM
[35] = second compound 3.16 µM, first compound 3.16 µM
[36] = second compound 3.16 µM, first compound 10 µM
[37] = second compound 10 µM, first compound 0.0316 µM
[38] = second compound 10 µM, first compound 0.1 µM
[39] = second compound 10 µM, first compound 0.316 µM
[40] = second compound 10 µM, first compound 1 µM
[41] = second compound 10 µM, first compound 3.16 µM
[42] = second compound 10 µM, first compound 10 µM
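Further: spheroids exposed to compounds for one week before readout.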
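Wherever viability, T/C is given: luminescence used as stand-in measure of viable cells; 100% = DMSO vehicle control viability.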

Q: Which results are given for `CC1COCCN1c1cc(C2(S(C)(=N)=O)CC2)nc(-c2ccnc3[nH]ccc23)n1` (stereo not drawn) + Nc1ccc(C#CCN(C(=O)Cc2ncc(C(F)(F)F)cc2C(F)(F)F)c2ccc(F)cc2)nn1?
A: IC50 [1]: 0.541 µM; IC50 [2]: 0.514 µM; IC50 [3]: 0.592 µM; IC50 [4]: 0.537 µM; IC50 [5]: 0.559 µM; IC50 [6]: 0.527 µM; viability, T/C [7]: 106%; viability, T/C [8]: 113%; viability, T/C [9]: 81.3%; viability, T/C [10]: 14.2%; viability, T/C [11]: 5.34%; viability, T/C [12]: 3.83%; viability, T/C [13]: 94.3%; viability, T/C [14]: 108%; viability, T/C [15]: 75%; viability, T/C [16]: 15.4%; viability, T/C [17]: 5.4%; viability, T/C [18]: 3.91%; viability, T/C [19]: 104%; viability, T/C [20]: 101%; viability, T/C [21]: 92.6%; viability, T/C [22]: 14.3%; viability, T/C [23]: 5.2%; viability, T/C [24]: 3.58%; viability, T/C [25]: 104%; viability, T/C [26]: 95%; viability, T/C [27]: 81.9%; viability, T/C [28]: 12.5%; viability, T/C [29]: 6.5%; viability, T/C [30]: 2.93%; viability, T/C [31]: 102%; viability, T/C [32]: 104%; viability, T/C [33]: 87.3%; viability, T/C [34]: 12%; viability, T/C [35]: 5.15%; viability, T/C [36]: 4.26%; viability, T/C [37]: 111%; viability, T/C [38]: 91.2%; viability, T/C [39]: 80.8%; viability, T/C [40]: 11.4%; viability, T/C [41]: 5.02%; viability, T/C [42]: 4.34%

Q: What does the source list for `CC(C)n1c(=O)n(C)c2cnc3cc(F)c(-c4ccc(OCCCN5CCCCC5)nc4)cc3c21` + Cc1cccc(N(C)C(=O)C2C(O)CCN2c2nc(C)cc(C(F)(F)F)c2C#N)c1?
A: IC50 [1]: > 10 µM; IC50 [2]: > 10 µM; IC50 [3]: > 10 µM; IC50 [4]: > 10 µM; IC50 [5]: > 10 µM; IC50 [6]: > 10 µM; viability, T/C [7]: 88.5%; viability, T/C [8]: 107%; viability, T/C [9]: 100%; viability, T/C [10]: 110%; viability, T/C [11]: 111%; viability, T/C [12]: 93.8%; viability, T/C [13]: 89.7%; viability, T/C [14]: 88.6%; viability, T/C [15]: 105%; viability, T/C [16]: 101%; viability, T/C [17]: 101%; viability, T/C [18]: 80.6%; viability, T/C [19]: 103%; viability, T/C [20]: 98.5%; viability, T/C [21]: 105%; viability, T/C [22]: 105%; viability, T/C [23]: 111%; viability, T/C [24]: 92.5%; viability, T/C [25]: 102%; viability, T/C [26]: 94.8%; viability, T/C [27]: 108%; viability, T/C [28]: 109%; viability, T/C [29]: 104%; viability, T/C [30]: 87.5%; viability, T/C [31]: 94.4%; viability, T/C [32]: 111%; viability, T/C [33]: 96.7%; viability, T/C [34]: 105%; viability, T/C [35]: 87.5%; viability, T/C [36]: 81.9%; viability, T/C [37]: 99.1%; viability, T/C [38]: 86.1%; viability, T/C [39]: 90.4%; viability, T/C [40]: 96.8%; viability, T/C [41]: 87.6%; viability, T/C [42]: 81%

Q: Which results are given for `COc1ccc([C@@H](O)c2cc(-c3ncnc4cc(N5CCOCC5)ccc34)c(F)cc2Cl)nn1`?
A: viability, T/C (compound 0.0316 µM): 95.9% and 109% and 85.5%; viability, T/C (compound 0.1 µM): 113% and 97.3% and 88.6%; viability, T/C (compound 0.316 µM): 95.8% and 98.6% and 91.6%; viability, T/C (compound 1 µM): 95.5% and 92.4% and 92.3%; viability, T/C (compound 3.16 µM): 86% and 89.3% and 87.6%; viability, T/C (compound 10 µM): 40.4% and 53.2% and 40.9%; IC50 (curve of compound): 7.85 µM and > 10 µM and 7.99 µM

Q: With `CNCc1ccc(-c2[nH]c3cc(F)cc4c3c2CCNC4=O)cc1` as the compound, how does the viability, T/C (compound 0.0316 µM) read?
A: The viability, T/C was 107% and 95.9% and 101%.

Q: What about the viability, T/C (compound 0.1 µM) of the same compound?
A: Its viability, T/C is 109% and 115% and 101%.

Q: And the viability, T/C (compound 0.316 µM)?
A: Its viability, T/C is 96.2% and 94.8% and 102%.

Q: What about the viability, T/C (compound 1 µM) of the same compound?
A: Its viability, T/C is 94.9% and 105% and 102%.

Q: What about the viability, T/C (compound 3.16 µM) of the same compound?
A: Its viability, T/C is 108% and 96% and 106%.

Q: And the viability, T/C (compound 10 µM)?
A: Its viability, T/C is 103% and 98.2% and 107%.

Q: And the IC50 (curve of compound)?
A: Its IC50 is > 10 µM.
